These results are taken from ChEMBL document CHEMBL1149593, “Mechanism of the melanogenesis stimulation activity of (-)-cubebin in murine B16 melanoma cells” (2007).

Active and inactive are the calls of the source. The rule behind the calls is not given here.

Assay [1] has as its system B16. Description: Induction of tyrosinase mRNA expression in mouse B16 cells in presence of SB-203580. Type of assay: functional, cell-based.
Assay [2] has as its system B16. Description: Increase in melanin level in mouse B16 cells at 10 uM after 48 to 96 hrs. Type of assay: functional, cell-based.
Assay [3] has as its target MAP kinase p38 (Mus musculus) (UniProt P47811+O08911+Q9WUI1+Q9Z1B7). Description: Increase in p38 MAPK phosphorylation in mouse B16 cells at 4 to 8 hrs. Type of assay: cell-based.
In assay [4] the test system is B16. Description: Increase in tyrosinase activity in mouse B16 cells at 10 uM after 24 to 96 hrs. Type of assay: functional, cell-based.
Assay [5] deals with B16. Description: Melanogenesis stimulation activity in mouse B16 cells at 2 to 10 uM. Type of assay: functional, cell-based.
The test system of assay [6] is B16. Description: Increase in tyrosinase expression in mouse B16 cells at 10 uM after 48 hrs. Type of assay: functional.
Assay [7] deals with B16. Description: Increase in tyrosinase mRNA expression in mouse B16 cells at 10 uM after 12 hrs. Type of assay: functional.

On to `O[C@H]1OC[C@H](Cc2ccc3c(c2)OCO3)[C@H]1Cc1ccc2c(c1)OCO2`, for which, in the assay on B16 [1], the outcome was inactive. The result (in the assay on B16 [2]; in assay [3]; in the assay on B16 [4]; with B16 [5]) was Active. The Fold change turned out to be 6.2 in the assay with B16 [6] and 1.8 with B16 [7].
